Reference: PubChem BioAssay AID192 (DTP/NCI, 2004)
Several values for one entry are separate records, joined by “and”; a condition that tells them apart may be missing. Equal entries are not always repeated. Inconclusive results and toxic doses are left out.

System: BDF1 mice, B16 melanoma ip, median survival T/C
Assay: NCI In Vivo Anticancer Drug Screen. Data for tumor model B16 Melanoma (intraperitoneal) in B6D2F1 (BDF1) mice
Conditions: endpoint: median survival time, higher = longer survival
In short: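 Compounds were tested in mice carrying transplantable tumors. Survival or tumor size was recorded, and each value is the treated-group measurement (T) divided by that of the vehicle-treated control group (C).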

[1] = dose: 50.0 mg/kg/injection, schedule: Q01DX009 (ip), vehicle: Klucel (hydroxypropylcellulose) (HPC)
[2] = dose: 100.0 mg/kg/injection, schedule: Q01DX009 (ip), vehicle: Klucel (hydroxypropylcellulose) (HPC)
[3] = dose: 200.0 mg/kg/injection, schedule: Q01DX009 (ip), vehicle: Klucel (hydroxypropylcellulose) (HPC)

COc1cc(NS(C)(=O)=O)ccc1Nc1c2ccccc2nc2ccccc12
T/C (dose: 0.1 mg/kg/injection, schedule: Q01DX009 (ip), vehicle: saline): 102 % of control
T/C (dose: 0.2 mg/kg/injection, schedule: Q01DX009 (ip), vehicle: saline): 118 % of control
T/C (dose: 0.25 mg/kg/injection, schedule: Q01DX009 (ip), vehicle: other): 119 % of control
T/C (dose: 0.5 mg/kg/injection, schedule: Q01DX009 (ip), vehicle: Klucel (hydroxypropylcellulose) (HPC)): 183 % of control
T/C (dose: 0.5 mg/kg/injection, schedule: Q01DX009 (ip), vehicle: lactic acid): 150 % of control
T/C (dose: 0.5 mg/kg/injection, schedule: Q01DX009 (ip), vehicle: other): 120 % of control
T/C (dose: 0.5 mg/kg/injection, schedule: Q03HX024 (oral), vehicle: lactic acid): 100 % of control
T/C (dose: 0.75 mg/kg/injection, schedule: Q01DX009 (ip), vehicle: other): 113 % of control
T/C (dose: 0.8 mg/kg/injection, schedule: Q01DX005 (iv), vehicle: lactic acid): 100 % of control
T/C (dose: 0.8 mg/kg/injection, schedule: Q01DX009 (ip), vehicle: Klucel (hydroxypropylcellulose) (HPC)): 180 % of control
T/C (dose: 0.8 mg/kg/injection, schedule: Q01DX009 (ip), vehicle: saline): 177 % of control
T/C (dose: 0.8 mg/kg/injection, schedule: Q04DX003 (iv), vehicle: lactic acid): 102 % of control
T/C (dose: 1.0 mg/kg/injection, schedule: Q01DX009 (ip), vehicle: Klucel (hydroxypropylcellulose) (HPC)): 160 % of control and 166 % of control and 189 % of control
T/C (dose: 1.0 mg/kg/injection, schedule: Q01DX009 (ip), vehicle: clinical formulation): 183 % of control
T/C (dose: 1.0 mg/kg/injection, schedule: Q01DX009 (ip), vehicle: lactic acid): 202 % of control
T/C (dose: 1.0 mg/kg/injection, schedule: Q01DX009 (oral), vehicle: lactic acid): 96 % of control
T/C (dose: 1.0 mg/kg/injection, schedule: Q01DX009 (oral), vehicle: other): 106 % of control and 109 % of control
T/C (dose: 1.0 mg/kg/injection, schedule: Q03HX024 (oral), vehicle: lactic acid): 97 % of control
T/C (dose: 1.0 mg/kg/injection, schedule: Q04DX003 (ip), vehicle: other): 118 % of control
T/C (dose: 1.25 mg/kg/injection, schedule: Q01DX009 (ip), vehicle: saline): 177 % of control
T/C (dose: 1.5 mg/kg/injection, schedule: Q01DX009 (ip), vehicle: other): 114 % of control
T/C (dose: 1.6 mg/kg/injection, schedule: Q01DX005 (iv), vehicle: lactic acid): 110 % of control
T/C (dose: 1.6 mg/kg/injection, schedule: Q04DX003 (iv), vehicle: lactic acid): 92 % of control
T/C (dose: 2.0 mg/kg/injection, schedule: Q01DX009 (ip), vehicle: Klucel (hydroxypropylcellulose) (HPC)): 184 % of control
T/C (dose: 2.0 mg/kg/injection, schedule: Q01DX009 (ip), vehicle: clinical formulation): 212 % of control
T/C (dose: 2.0 mg/kg/injection, schedule: Q01DX009 (ip), vehicle: lactic acid): 218 % of control
T/C (dose: 2.0 mg/kg/injection, schedule: Q01DX009 (ip), vehicle: other): 158 % of control
T/C (dose: 2.0 mg/kg/injection, schedule: Q01DX009 (oral), vehicle: lactic acid): 98 % of control
T/C (dose: 2.0 mg/kg/injection, schedule: Q01DX009 (oral), vehicle: other): 105 % of control and 109 % of control
T/C (dose: 2.0 mg/kg/injection, schedule: Q03HX016 (oral), vehicle: lactic acid): 101 % of control
T/C (dose: 2.0 mg/kg/injection, schedule: Q03HX024 (oral), vehicle: lactic acid): 101 % of control
T/C (dose: 2.0 mg/kg/injection, schedule: Q04DX003 (oral), vehicle: lactic acid): 105 % of control
T/C (dose: 2.0 mg/kg/injection, schedule: Q04DX003 (oral), vehicle: other): 105 % of control and 96 % of control
T/C (dose: 3.0 mg/kg/injection, schedule: Q01DX009 (ip), vehicle: Klucel (hydroxypropylcellulose) (HPC)): 250 % of control
T/C (dose: 3.12 mg/kg/injection, schedule: Q01DX009 (ip), vehicle: saline): 113 % of control
T/C (dose: 3.3 mg/kg/injection, schedule: Q01DX005 (iv), vehicle: lactic acid): 155 % of control
T/C (dose: 3.3 mg/kg/injection, schedule: Q04DX003 (iv), vehicle: lactic acid): 105 % of control
T/C (dose: 3.75 mg/kg/injection, schedule: Q04DX003 (ip), vehicle: clinical formulation): 173 % of control
T/C (dose: 4.0 mg/kg/injection, schedule: Q01DX009 (oral), vehicle: lactic acid): 105 % of control
T/C (dose: 4.0 mg/kg/injection, schedule: Q01DX009 (oral), vehicle: other): 100 % of control and 96 % of control
T/C (dose: 4.0 mg/kg/injection, schedule: Q04DX003 (oral), vehicle: lactic acid): 110 % of control
T/C (dose: 4.0 mg/kg/injection, schedule: Q04DX003 (oral), vehicle: other): 97 % of control and 105 % of control and 103 % of control
T/C (dose: 5.0 mg/kg/injection, schedule: Q01DX009 (ip), vehicle: Klucel (hydroxypropylcellulose) (HPC)): 223 % of control
T/C (dose: 6.0 mg/kg/injection, schedule: Q01DX009 (ip), vehicle: other): 72 % of control
T/C (dose: 6.25 mg/kg/injection, schedule: Q01DX009 (ip), vehicle: saline): 124 % of control
T/C (dose: 6.5 mg/kg/injection, schedule: Q01DX005 (iv), vehicle: lactic acid): 112 % of control
T/C (dose: 6.5 mg/kg/injection, schedule: Q04DX003 (iv), vehicle: lactic acid): 107 % of control
T/C (dose: 7.5 mg/kg/injection, schedule: Q04DX003 (ip), vehicle: clinical formulation): 193 % of control
T/C (dose: 8.0 mg/kg/injection, schedule: Q01DX001 (ip), vehicle: lactic acid): 151 % of control
T/C (dose: 8.0 mg/kg/injection, schedule: Q01DX001 (oral), vehicle: lactic acid): 110 % of control
T/C (dose: 8.0 mg/kg/injection, schedule: Q01DX009 (oral), vehicle: other): 105 % of control and 103 % of control
T/C (dose: 8.0 mg/kg/injection, schedule: Q04DX003 (ip), vehicle: other): 188 % of control
T/C (dose: 8.0 mg/kg/injection, schedule: Q04DX003 (oral), vehicle: lactic acid): 111 % of control
T/C (dose: 8.0 mg/kg/injection, schedule: Q04DX003 (oral), vehicle: other): 105 % of control [middle of 4 runs]
T/C (dose: 8.0 mg/kg/injection, schedule: Q08DX002 (oral), vehicle: lactic acid): 107 % of control
T/C (dose: 12.5 mg/kg/injection, schedule: Q01DX009 (ip), vehicle: saline): 163 % of control
T/C (dose: 12.5 mg/kg/injection, schedule: Q04DX003 (ip), vehicle: Klucel (hydroxypropylcellulose) (HPC)): 166 % of control
T/C (dose: 13.0 mg/kg/injection, schedule: Q04DX003 (iv), vehicle: lactic acid): 120 % of control
T/C (dose: 15.0 mg/kg/injection, schedule: Q04DX003 (ip), vehicle: clinical formulation): 173 % of control
T/C (dose: 16.0 mg/kg/injection, schedule: Q01DX001 (oral), vehicle: lactic acid): 110 % of control
T/C (dose: 16.0 mg/kg/injection, schedule: Q04DX003 (ip), vehicle: other): 152 % of control
T/C (dose: 16.0 mg/kg/injection, schedule: Q04DX003 (oral), vehicle: other): 97 % of control and 113 % of control and 110 % of control
T/C (dose: 16.0 mg/kg/injection, schedule: Q08DX002 (oral), vehicle: lactic acid): 108 % of control
T/C (dose: 25.0 mg/kg/injection, schedule: Q01DX001 (ip), vehicle: saline sonified): 166 % of control
T/C (dose: 25.0 mg/kg/injection, schedule: Q01DX001 (ip), vehicle: saline): 160 % of control
T/C (dose: 25.0 mg/kg/injection, schedule: Q04DX003 (ip), vehicle: Klucel (hydroxypropylcellulose) (HPC)): 285 % of control
T/C (dose: 26.0 mg/kg/injection, schedule: Q04DX003 (iv), vehicle: lactic acid): 120 % of control
T/C (dose: 32.0 mg/kg/injection, schedule: Q01DX001 (oral), vehicle: lactic acid): 116 % of control
T/C (dose: 32.0 mg/kg/injection, schedule: Q04DX003 (oral), vehicle: other): 121 % of control [middle of 4 runs]
T/C (dose: 32.0 mg/kg/injection, schedule: Q08DX002 (oral), vehicle: lactic acid): 115 % of control
T/C (dose: 50.0 mg/kg/injection, schedule: Q01DX001 (ip), vehicle: saline sonified): 102 % of control
T/C (dose: 64.0 mg/kg/injection, schedule: Q04DX003 (oral), vehicle: other): 110 % of control
T/C (dose: 100.0 mg/kg/injection, schedule: Q01DX001 (ip), vehicle: saline sonified): 169 % of control

CSc1nc(=O)[nH]nc1SCc1ccccc1
T/C [1]: 98 % of control
T/C [2]: 105 % of control
T/C [3]: 98 % of control
T/C (dose: 400.0 mg/kg/injection, schedule: Q01DX009 (ip), vehicle: Klucel (hydroxypropylcellulose) (HPC)): 110 % of control

O=S(=O)(SC(S(=O)(=O)c1ccccc1)S(=O)(=O)c1ccccc1)c1ccccc1
T/C (dose: 12.5 mg/kg/injection, schedule: Q01DX009 (ip), vehicle: Klucel (hydroxypropylcellulose) (HPC)): 99 % of control
T/C (dose: 25.0 mg/kg/injection, schedule: Q01DX009 (ip), vehicle: Klucel (hydroxypropylcellulose) (HPC)): 99 % of control
T/C [1]: 105 % of control
T/C [2]: 107 % of control
T/C [3]: 90 % of control
